Test results: patent US11192878B2, “Piperidine-2,6-dione derivative and use thereof” (KOREA RESEARCH INSTITUTE OF CHEMICAL TECHNOLOGY, priority 2017, dated 2021)
Counter-ions that a name gives are not always drawn.

These compounds were tested on NCI-H929 cells (assay: Cytotoxicity experiment (WST-1)). Details: Homo sapiens, 72 hours, WST-1, absorbance 450 nm.
Format: cell-based
Procedure: In order to confirm the effect of the compound of the present disclosure on cancer cells and normal cells, the cytotoxicity experiment was conducted as follows.
After seeding NCI-H929 cells on a 96-well plate so as to be 10,000 cells per each well, each compound was treated in a predetermined concentration. In 72 hours, WST-1 reagent was added, and in 1 hour, the absorbance was measured at 450 nm using spectramax spectrophotometer to measure the degree of cell death.
`Nc1cccc2nnn(C3CCC(=O)NC3=O)c(=O)c12` (stereo not drawn) [Chemical formula 7, 3-(5-amino-4-oxobenzo[d][1,2,3]triazin-3(4H)-yl)piperidine-2,6-dione] showed an IC50 of less than 1 µM. `O=C1CCC(n2nnc3cccc(F)c3c2=O)C(=O)N1` (stereo not drawn) [Chemical formula 8, 3-(5-fluoro-4-oxobenzo[d][1,2,3]triazin-3(4H)-yl)piperidine-2,6-dione] was tested, and the IC50 was 1 to 10 µM. Work on `O=C1CCC(n2nnc3cccc([N+](=O)[O-])c3c2=O)C(=O)N1` (stereo not drawn) [Chemical formula 9, 3-(5-nitro-4-oxobenzo[d][1,2,3]triazin-3(4H)-yl)piperidine-2,6-dione] yielded an IC50 of 10 to 50 µM. With `Cc1cccc2nnn(C3CCC(=O)NC3=O)c(=O)c12` (stereo not drawn) [Chemical formula 11, 3-(5-methyl-4-oxobenzo[d][1,2,3]triazin-3(4H)-yl)piperidine-2,6-dione] the IC50 was 1 to 10 µM. For `O=C1CCC(n2nnc3ccc(Cl)cc3c2=O)C(=O)N1` (stereo not drawn) [Chemical formula 12, 3-(6-chloro-4-oxobenzo[d][1,2,3]triazin-3(4H)-yl)piperidine-2,6-dione], the IC50 was 10 to 50 µM. `COc1ccc2nnn(C3CCC(=O)NC3=O)c(=O)c2c1` (stereo not drawn) [Chemical formula 19, 3-(6-methoxy-4-oxobenzo[d][1,2,3]triazin-3(4H)-yl)piperidine-2,6-dione] showed an IC50 of 10 to 50 µM. For `CC(=O)Nc1cccc2nnn(C3CCC(=O)NC3=O)c(=O)c12` (stereo not drawn) [Chemical formula 20, N-(3-(2,6-dioxopiperidin-3-yl)-4-oxo-3,4-dihydrobenzo[d][1,2,3]triazin-5-yl)acetamide], the IC50 was 10 to 50 µM. `O=C1CCC(n2nnc3c([N+](=O)[O-])cccc3c2=O)C(=O)N1` (stereo not drawn) [Chemical formula 21, 3-(8-nitro-4-oxobenzo[d][1,2,3]triazin-3(4H)-yl)piperidine-2,6-dione] was tested, and the IC50 was 10 to 50 µM. Work on `CC(=O)Nc1ccc2nnn(C3CCC(=O)NC3=O)c(=O)c2c1` (stereo not drawn) [Chemical formula 23, N-(3-(2,6-dioxopiperidin-3-yl)-4-oxo-3,4-dihydrobenzo[d][1,2,3]triazin-6-yl)acetamide] yielded an IC50 of 10 to 50 µM. With `Nc1cccc2c(=O)n(C3CCC(=O)NC3=O)ccc12` (stereo not drawn) [Chemical formula 24, 3-(5-amino-1-oxoisoquinolin-2(1H)-yl)piperidine-2,6-dione] the IC50 was 10 to 50 µM. `O=C1CCC(n2nnc3ccccc3c2=O)C(=O)N1` (stereo not drawn) [Chemical formula 25, 3-(4-oxobenzo[d][1,2,3]triazin-3(4H)-yl)piperidine-2,6-dione] gave an IC50 of 1 to 10 µM. For `O=C1CCC(n2nnc3cc([N+](=O)[O-])ccc3c2=O)C(=O)N1` (stereo not drawn) [Chemical formula 26, 3-(7-nitro-4-oxobenzo[d][1,2,3]triazin-3(4H)-yl)piperidine-2,6-dione], the IC50 was 10 to 50 µM. For `O=C1CCC(n2nnc3ccc([N+](=O)[O-])cc3c2=O)C(=O)N1` (stereo not drawn) [Chemical formula 27, 3-(6-nitro-4-oxobenzo[d][1,2,3]triazin-3(4H)-yl)piperidine-2,6-dione], the IC50 was 10 to 50 µM. Compound `O=C1CCC(n2nnc3cccc(C(=O)O)c3c2=O)C(=O)N1` (stereo not drawn) [Chemical formula 29, 3-(2,6-dioxopiperidin-3-yl)-4-oxo-3,4-dihydrobenzo[d][1,2,3]triazin-5-carboxylic acid] has an IC50 of 10 to 50 µM. For `CC1(n2nnc3cccc(N)c3c2=O)CCC(=O)NC1=O` (stereo not drawn) [Chemical formula 30, 3-(5-amino-4-oxobenzo[d][1,2,3]triazin-3(4H)-yl)-3-methylpiperidine-2,6-dione], the IC50 was 10 to 50 µM. `Nc1cccc2ccn(C3CCC(=O)NC3=O)c(=O)c12` (stereo not drawn) [Chemical formula 31, 3-(8-amino-1-oxoisoquinolin-2(1H)-yl)piperidine-2,6-dione] showed an IC50 of 10 to 50 µM. `Cc1ccc(NC(=O)NCc2ccc3c(=O)n(C4CCC(=O)NC4=O)nnc3c2)cc1Cl` (stereo not drawn) [Chemical formula 37, 1-(3-chloro-4-methylphenyl)-3-((3-(2,6-dioxopiperidin-3-yl)-4-oxo-3,4-dihydrobenzo[d][1,2,3]triazin-7-yl)methyl)urea] showed an IC50 of less than 1 µM. In the case of `Cc1ccc(NC(=O)NCc2ccc3nnn(C4CCC(=O)NC4=O)c(=O)c3c2)cc1Cl` (stereo not drawn) [Chemical formula 38, 1-(3-chloro-4-methylphenyl)-3-((3-(2,6-dioxopiperidin-3-yl)-4-oxo-3,4-dihydrobenzo[d][1,2,3]triazin-6-yl)methyl)urea], the IC50 is reported as less than 1 µM. `O=C1CCC(n2nnc3cccc(NC(=O)c4ccccc4)c3c2=O)C(=O)N1` (stereo not drawn) [Chemical formula 56, N-(3-(2,6-dioxopiperidin-3-yl)-4-oxo-3,4-dihydrobenzo[d][1,2,3]triazin-5-yl)benzamide] was tested, and the IC50 was 10 to 50 µM. `O=C1CCC(n2nnc3cccc(O)c3c2=O)C(=O)N1` (stereo not drawn) [Chemical formula 57, 3-(5-hydroxy-4-oxobenzo[d][1,2,3]triazin-3(4H)-yl)piperidine-2,6-dione] showed an IC50 of less than 1 µM. In the case of `CC(C)(C)C(=O)OCN1C(=O)CCC(n2nnc3cccc(N)c3c2=O)C1=O` (stereo not drawn) [Chemical formula 58, (3-(5-amino-4-oxobenzo[d][1,2,3]triazin-3(4H)-yl)-2,6-dioxopiperidin-1-yl)methyl pivalate], the IC50 is reported as less than 1 µM. `Nc1cccc2nnn(C3CCC(=O)N(COC(=O)c4ccccc4)C3=O)c(=O)c12` (stereo not drawn) [Chemical formula 59, (3-(5-amino-4-oxobenzo[d][1,2,3]triazin-3(4H)-yl)-2,6-dioxopiperidin-1-yl)methyl benzoate] was tested, and the IC50 was less than 1 µM. `Nc1cccc2nnn(C3CCC(=O)N(COC(=O)C4CCNCC4)C3=O)c(=O)c12` (stereo not drawn) [Chemical formula 60, (3-(5-amino-4-oxobenzo[d][1,2,3]triazin-3(4H)-yl)-2,6-dioxopiperidin-1-yl)methyl piperidine-4-carboxylate hydrochloride] was tested, and the IC50 was less than 1 µM. `Nc1cccc2nnn(C3CCC(=O)N(COC(=O)[C@H]4CCCN4)C3=O)c(=O)c12` (stereo partly drawn) [Chemical formula 61, (3-(5-amino-4-oxobenzo[d][1,2,3]triazin-3(4H)-yl)-2,6-dioxopiperidin-1-yl)methyl D-prolinate hydrochloride] showed an IC50 of less than 1 µM. `CC[C@H](C)[C@H](N)C(=O)OCN1C(=O)CCC(n2nnc3cccc(N)c3c2=O)C1=O` (stereo partly drawn) [Chemical formula 62, (3-(5-amino-4-oxobenzo[d][1,2,3]triazin-3(4H)-yl)-2,6-dioxopiperidin-1-yl)methyl L-isoleucinate hydrochloride] gave an IC50 of less than 1 µM. With `CCCC(=O)OCN1C(=O)CCC(n2nnc3cccc(N)c3c2=O)C1=O` (stereo not drawn) [Chemical formula 63, (3-(5-amino-4-oxobenzo[d][1,2,3]triazin-3(4H)-yl)-2,6-dioxopiperidin-1-yl)methyl butyrate] the IC50 was less than 1 µM. For `Nc1ccc2nnn(C3CCC(=O)NC3=O)c(=O)c2c1` (stereo not drawn) [Chemical formula 65, 3-(6-amino-4-oxobenzo[d][1,2,3]triazin-3(4H)-yl)piperidine-2,6-dione], the IC50 was 10 to 50 µM.
